In US7259232B1, “Preferred segments of neural thread protein” (Nymox Pharmaceutical Corporation, priority 2000, dated 2007):

B1: Protein G: Protein G, binds antibody through the Fc region; used as column (protein)
chain: TYKLILNGKTLKGETTTEAVDAATAEKVFKQYANDNGVDGEWTYDDATKTFTVTEKPEVIDASELTPAVTTYKLVINGKTLKGETTTKAVDAETAEKAFKQYANDNGVDGVWTYDDATKTFTVTE

Columns and labels:
[1] = system: rabbit IgG; assay: Precipitation of rabbit immunoglobulin by Harlil peptide (Example 3); conditions: start 3.4 mg RGG + 1 mg NTP-3, pH 7, dialyzed overnight
Protocol: The purpose of this example was to show the self-aggregation ability of a Harlil peptide. The Harlil peptide NTP-3 forms disulfide bonds (because of the cysteine residue) and dimerizes at neutral pH. Since the dimerized peptide can bind two immunoglobulins, it can cause precipitation.
1 mg of the Harlil peptide NTP-3 in 1 mL of dimethylsulfoxide (DMSO) was added to 3.4 mg of rabbit IgG (Jackson Immunoresearch, West Grove, Pa.) at pH 7. The mixture was allowed to dialyze over night, and a clear white precipitate was observed the next morning. The precipitate was removed by centrifugation and the protein concentration of the supernatant was determined by absorbance at 280 nm using a Perkin Elmer spectrophotometer model Lambda 3B. Precipitation of immunoglobulin is prevented at a low pH, e.g., pH of 3.5 or less 3.5.

[2] = system: NTP; assay: Affinity purification of NTP from AD patient urine on NTP-3 agarose column, activity by 7C Gold strip (Example 2); format: binding, human; conditions: pH 2 eluate, gel bands assayed with 7C Gold, activity only in 35-45 kD band
Protocol: Preparation of the Urine Sample Containing NTP for Testing: The biological source of NTP used was the urine of a patient (BOU1) diagnosed with AD. Before application to the column material, the biological sample was processed according to the following protocol for processing of urine for AD testing: • 1. The urine was tested with an Ames Multistix™ (Bayer, Ind.). […] The urine was centrifuged at 3000×g for 15 minutes to remove cellular debris. • 3. The urine was filtered using a syringe through a 0.22 μm cellulose acetate filter, and the filtrate was brought to 0.05% azide. • 4. The resultant aliquot was placed in the top reservoir of an Amicon Centricon® YM-10 Millipore, and centrifuged at 3000×g for one hour. • 5. […] Protein Concentration: The protein concentration in the eluate was 108 μg, as determined by Coomassie Blue staining (BioRad, Hercules, Calif.). […] Protein concentration was 145 μg, as determined by Bicinchoninic Acid Kit (Cat. # 23223, BioRad). Absorbance corrected for the buffer at 280 nm was 390, indicating 390 μg of protein. The larger protein amount obtained with absorbance measurement is likely a result of the presence of a large amount of aromatic amino acids in NTP, which can cause overestimation of protein using this measurement technique. […]

[3] = system: NTP3-RGG coated microtiter plate; assay: Microtiter plate assay: inhibition of conjugate binding to Harlil peptide coated plate (Example 5); conditions: monomer (unconjugated) peptide; peroxidase conjugated rabbit IgG; FIG. 2
Protocol: Preparation of Microtiter Plate: The Harlil peptide/immunoglobulin complex NTP3-RGG, in a ratio of 30:1 and prepared as in Example 4, was coated on an Immulon 4 microtiter plate (Dynex, Chantilly, Va.) at a concentration of 0.5 μg/well.
Standards: Recombinant NTP in TBS (described in de la Monte et al., J. of Neuropath. Exp. Neurol., 55:1038-1050 (1996)). 0.01% azide (Nymox Pharm. Corp., Lot 4-7-98), was serially diluted into TBS. 100 μl of each dilution was incubated at pH 3.5 for one hour. The dilutions were then washed for fifteen minutes in TBS, 0.1% albumin, and 0.05% Tween 80. This was followed by 3 washes in TBS and 0.05% Tween 80. Microtiter Plate Assay: 100 μl of 1:8000 dilution of peroxidase conjugated rabbit IgG (Jackson Immunoresearch, West Grove, Pa.) was then added and allowed to react for 30 minutes. The microtiter plate was washed twice with TBS and 0.05% Tween 80, followed by the addition of 150 μl of […] (TMB) (Serex Inc., Maywood, N.J.). The mixture was then incubated for 10 min. and stopped with 50 μl of 2 N HCl. Absorbance was read in a SLT 340 ATTC spectrophotometer.

[4] = system: NTP; assay: NTP immunoreactivity of Harlil peptides conjugated to rabbit IgG (Example 1); format: binding; conditions: peptides conjugated to maleimide activated Rabbit IgG
Description: The following Harlil sequences were synthesized (Synpep, Dublin Calif.) and conjugated to maleimide activated Rabbit IgG (Jackson Immunoresearch, West Grove Pa.) and assessed for their NTP immunoreactivity. […] (SEQ ID NOS 4-11, respectively, in order of appearance)
Conjugation to carrier proteins was through a cysteine. Thus, peptides NTP-1 and NTP-2 produced mixed conjugate results because there is more than one cysteine residue. Therefore, for peptides NTP-5 and NTP-6, the secondary cysteine was blocked with ACM.

[5] = system: NTP; assay: Protein G column pass-through of NTP positive and negative samples (Example 7); format: binding; conditions: NTP positive and negative samples passed through Protein G column; NTP not significantly reduced
Description: Protein G binds antibody through the Fc region. […] Specifically, since Harlil peptides recognize Harlil peptides, Harlil peptides recognize the Fc region of antibody, and Protein G recognizes the Fc region of antibody, this experiment determined whether Protein G recognizes NTP.
Both an NTP positive and an NTP negative sample were passed through a Protein G column.

Chain of NTP (as listed by the source): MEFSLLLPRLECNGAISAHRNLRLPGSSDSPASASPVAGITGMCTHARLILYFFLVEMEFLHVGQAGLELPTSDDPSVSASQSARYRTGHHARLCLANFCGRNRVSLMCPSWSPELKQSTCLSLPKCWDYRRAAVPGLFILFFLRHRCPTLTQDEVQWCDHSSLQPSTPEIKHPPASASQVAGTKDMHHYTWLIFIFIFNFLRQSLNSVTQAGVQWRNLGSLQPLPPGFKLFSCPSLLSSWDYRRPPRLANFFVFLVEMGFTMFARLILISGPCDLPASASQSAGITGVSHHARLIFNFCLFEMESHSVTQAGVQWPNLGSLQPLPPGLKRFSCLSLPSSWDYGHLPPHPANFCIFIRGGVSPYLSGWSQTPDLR

Molecule	% Protein Precipitated [1]	binding of NTP by NTP-3 affinity column [2]	inhibition of conjugate binding to the plate [3]	NTP immunoreactivity [4]	binding of Protein G to NTP [5]
C A R Y R T G H H A R L M (CARYRTGHHARLM) [NTP-3]	39%	selectively bound the NTP protein	inhibits the binding of conjugate to the plate	good reactivity	
B1					does not bind to NTP
